In ChEMBL document CHEMBL1157193, “Synthesis and anti-Trypanosoma cruzi activity of derivatives from nor-lapachones and lapachones” (Bioorg Med Chem, 2008):

System: Trypanosoma cruzi
Assay: Trypanocidal activity against Trypanosoma cruzi Y blood stream trypomastigotes after 24 hrs
Type: functional, organism-based

## Cc1ccc(C)c(NC2C3=C(OC2(C)C)c2ccccc2C(=O)C3=O)c1 (stereo not drawn)
  IC50: 1760 µM

## CC1(C)OC2=C(C(=O)C(=O)c3ccccc32)C1Nc1ccc(F)cc1 (stereo not drawn)
  IC50: 2520 µM

## CC1(C)OC2=C(C(=O)C(=O)c3ccccc32)C1Nc1cccc(Cl)c1 (stereo not drawn)
  IC50: 333 µM

## CC1(C)OC2=C(C(=O)C(=O)c3ccccc32)C1Nc1cccc(Br)c1 (stereo not drawn)
  IC50: 141 µM

## CC1(C)OC2=C(C(=O)C(=O)c3ccccc32)C1Nc1cccc([N+](=O)[O-])c1 (stereo not drawn)
  IC50: 86.3 µM

## CC1(C)OC2=C(C(=O)c3ccccc3C2=O)C1Nc1ccccc1 (stereo not drawn)
  IC50: > 4000 µM

## CC1(C)OC2=C(C(=O)C(=O)c3ccccc32)C1Nc1ccc(Cl)cc1 (stereo not drawn)
  IC50: 384 µM

## CC1(C)OC2=C(C(=O)C(=O)c3ccccc32)C1O (stereo not drawn)
  IC50: 212 µM

## COc1ccc(NC2C3=C(OC2(C)C)c2ccccc2C(=O)C3=O)cc1 (stereo not drawn)
  IC50: 88.2 µM

## CC1(C)CC(Nc2ccccc2)C2=C(O1)C(=O)c1ccccc1C2=O (stereo not drawn)
  IC50: 342 µM

## CC1(C)CC2=C(O1)C1(CO1)c1ccccc1C2=O (stereo not drawn)
  IC50: > 4000 µM

## CC1(C)OC2=C(C(=O)C(=O)c3ccccc32)C1Nc1cccc(F)c1 (stereo not drawn)
  IC50: > 4000 µM

## CC1(C)OC2=C(C(=O)C(=O)c3ccccc32)C1Nc1ccc(Br)cc1 (stereo not drawn)
  IC50: 952 µM

## CC1(C)OC2=C(C(=O)C(=O)c3ccccc32)C1Nc1ccc([N+](=O)[O-])cc1 (stereo not drawn)
  IC50: 857 µM

## CC1(C)OC2=C(C(=O)c3ccccc3C2=O)C1N=[N+]=[N-] (stereo not drawn)
  IC50: 179 µM

## CC1(C)CC2=C(O1)C(=O)c1ccccc1C2=O
  IC50: > 4800 µM

## CC1(C)CCC2=C(O1)C(=O)c1ccccc1C2=O [ALPHA-LAPACHONE]
  IC50: > 4800 µM

## CC(C)=CCC1=C(O)C(=O)c2ccccc2C1=O [LAPACHOL]
  IC50: 411 µM
